Experimental data published in PubChem BioAssay AID1963958 (Molecular Pharmacology Branch, DTP, NCI, 2024).

Test system: MDA-MB-231 multicell spheroids, viability
Test: Anticancer human tumor MDA-MB-231 cell line growth inhibition [PI3K];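 also: spheroids exposed to agents for seven days before reading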;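 as to viability, T/C: percent of vehicle control luminescence with DMSO treated spheroids as 100%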
Conditions: for IC50: curve of first compound; for viability, T/C: stronger effect = lower value
Method in brief: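 Agents were dosed from a top concentration near clinical Cmax (otherwise 10 microM) in half-log decrements, alone or combined with PI3K inhibitors. The spheroids contain tumor cells plus endothelial (HUVEC) and MSC stroma; viability is measured.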

[1] = second compound 0.0316 µM, first compound 0.0316 µM
[2] = second compound 0.0316 µM, first compound 0.1 µM
[3] = second compound 0.0316 µM, first compound 0.316 µM
[4] = second compound 0.0316 µM, first compound 1 µM
[5] = second compound 0.1 µM, first compound 0.0316 µM
[6] = second compound 0.1 µM, first compound 0.1 µM
[7] = second compound 0.1 µM, first compound 0.316 µM
[8] = second compound 0.1 µM, first compound 1 µM
[9] = second compound 0.316 µM, first compound 0.0316 µM
[10] = second compound 0.316 µM, first compound 0.1 µM
[11] = second compound 0.316 µM, first compound 0.316 µM
[12] = second compound 0.316 µM, first compound 1 µM
[13] = second compound 1 µM, first compound 0.0316 µM
[14] = second compound 1 µM, first compound 0.1 µM
[15] = second compound 1 µM, first compound 0.316 µM
[16] = second compound 1 µM, first compound 1 µM
[17] = second compound 3.16 µM, first compound 0.0316 µM
[18] = second compound 3.16 µM, first compound 0.1 µM
[19] = second compound 3.16 µM, first compound 0.316 µM
[20] = second compound 3.16 µM, first compound 1 µM
[21] = second compound 10 µM, first compound 0.0316 µM
[22] = second compound 10 µM, first compound 0.1 µM
[23] = second compound 10 µM, first compound 0.316 µM
[24] = second compound 10 µM, first compound 1 µM

Q: What does the source list for `CC(C)NCC(C(=O)N1CCN(c2ncnc3c2C(C)CC3O)CC1)c1ccc(Cl)cc1` (centres undefined) + Cc1nc(NC(=O)N2CCCC2C(N)=O)sc1-c1ccnc(C(C)(C)C(F)(F)F)c1?
A: IC50 (second compound 0.0316 µM): 7.63 µM; IC50 (second compound 0.1 µM): 6.69 µM; IC50 (second compound 0.316 µM): 4.73 µM; IC50 (second compound 1 µM): 4.4 µM; IC50 (second compound 3.16 µM): 4.09 µM; IC50 (second compound 10 µM): 3.7 µM; viability, T/C [1]: 95.8%; viability, T/C [2]: 95.9%; viability, T/C [3]: 82.7%; viability, T/C [4]: 83.5%; viability, T/C (second compound 0.0316 µM, first compound 3.16 µM): 66.9%; viability, T/C (second compound 0.0316 µM, first compound 10 µM): 44.2%; viability, T/C [5]: 84.8%; viability, T/C [6]: 79.9%; viability, T/C [7]: 71.4%; viability, T/C [8]: 73.5%; viability, T/C (second compound 0.1 µM, first compound 3.16 µM): 64%; viability, T/C (second compound 0.1 µM, first compound 10 µM): 42.5%; viability, T/C [9]: 72.6%; viability, T/C [10]: 77.8%; viability, T/C [11]: 73.4%; viability, T/C [12]: 63.4%; viability, T/C (second compound 0.316 µM, first compound 3.16 µM): 55%; viability, T/C (second compound 0.316 µM, first compound 10 µM): 42.6%; viability, T/C [13]: 70.7%; viability, T/C [14]: 66.6%; viability, T/C [15]: 63.7%; viability, T/C [16]: 60.4%; viability, T/C (second compound 1 µM, first compound 3.16 µM): 55.6%; viability, T/C (second compound 1 µM, first compound 10 µM): 40.4%; viability, T/C [17]: 73.7%; viability, T/C [18]: 66.4%; viability, T/C [19]: 64.3%; viability, T/C [20]: 60.6%; viability, T/C (second compound 3.16 µM, first compound 3.16 µM): 54.3%; viability, T/C (second compound 3.16 µM, first compound 10 µM): 40.4%; viability, T/C [21]: 68.7%; viability, T/C [22]: 65.5%; viability, T/C [23]: 61.3%; viability, T/C [24]: 59.9%; viability, T/C (second compound 10 µM, first compound 3.16 µM): 53.4%; viability, T/C (second compound 10 µM, first compound 10 µM): 37.8%

Q: For `CCN1CCN(Cc2ccc(Nc3ncc(F)c(-c4cc(F)c5nc(C)n(C(C)C)c5c4)n3)nc2)CC1` + Cc1nc(NC(=O)N2CCCC2C(N)=O)sc1-c1ccnc(C(C)(C)C(F)(F)F)c1, which IC50 (second compound 0.0316 µM) is on record?
A: The IC50 was 0.261 µM.

Q: What about the IC50 (second compound 0.1 µM) of the same compound?
A: The IC50 was 0.0893 µM.

Q: And the IC50 (second compound 0.316 µM)?
A: The IC50 was 0.0309 µM.

Q: And the IC50 (second compound 1 µM)?
A: The IC50 was 0.0202 µM.

Q: And the IC50 (second compound 3.16 µM)?
A: Its IC50 is 0.0236 µM.

Q: What about the IC50 (second compound 10 µM) of the same compound?
A: Its IC50 is 0.0137 µM.

Q: And the viability, T/C (second compound 0.0316 µM, first compound 0.00316 µM)?
A: The viability, T/C was 90.9%.

Q: What about the viability, T/C (second compound 0.0316 µM, first compound 0.01 µM) of the same compound?
A: Its viability, T/C is 75.5%.

Q: What about the viability, T/C [1] of the same compound?
A: Its viability, T/C is 66.3%.

Q: And the viability, T/C [2]?
A: The viability, T/C was 54.2%.

Q: And the viability, T/C [3]?
A: Its viability, T/C is 45.3%.

Q: And the viability, T/C [4]?
A: The viability, T/C was 49.6%.

Q: What about the viability, T/C (second compound 0.1 µM, first compound 0.00316 µM) of the same compound?
A: The viability, T/C was 82.4%.

Q: And the viability, T/C (second compound 0.1 µM, first compound 0.01 µM)?
A: The viability, T/C was 74.1%.

Q: And the viability, T/C [5]?
A: The viability, T/C was 59.8%.

Q: What about the viability, T/C [6] of the same compound?
A: The viability, T/C was 50.5%.

Q: What about the viability, T/C [7] of the same compound?
A: Its viability, T/C is 40.8%.

Q: And the viability, T/C [8]?
A: Its viability, T/C is 46.4%.

Q: What about the viability, T/C (second compound 0.316 µM, first compound 0.00316 µM) of the same compound?
A: Its viability, T/C is 72.3%.

Q: What about the viability, T/C (second compound 0.316 µM, first compound 0.01 µM) of the same compound?
A: Its viability, T/C is 66.7%.

Q: What about the viability, T/C [9] of the same compound?
A: Its viability, T/C is 50.3%.

Q: And the viability, T/C [10]?
A: Its viability, T/C is 40.9%.

Q: What about the viability, T/C [11] of the same compound?
A: Its viability, T/C is 41.3%.

Q: What about the viability, T/C [12] of the same compound?
A: Its viability, T/C is 47.9%.

Q: What about the viability, T/C (second compound 1 µM, first compound 0.00316 µM) of the same compound?
A: Its viability, T/C is 65.8%.

Q: And the viability, T/C (second compound 1 µM, first compound 0.01 µM)?
A: Its viability, T/C is 57.3%.

Q: What about the viability, T/C [13] of the same compound?
A: Its viability, T/C is 45.8%.

Q: And the viability, T/C [14]?
A: The viability, T/C was 40.2%.

Q: What about the viability, T/C [15] of the same compound?
A: The viability, T/C was 40%.

Q: What about the viability, T/C [16] of the same compound?
A: Its viability, T/C is 47.7%.

Q: What about the viability, T/C (second compound 3.16 µM, first compound 0.00316 µM) of the same compound?
A: Its viability, T/C is 66.2%.

Q: What about the viability, T/C (second compound 3.16 µM, first compound 0.01 µM) of the same compound?
A: Its viability, T/C is 58.6%.

Q: And the viability, T/C [17]?
A: Its viability, T/C is 47.7%.

Q: And the viability, T/C [18]?
A: The viability, T/C was 41.6%.

Q: What about the viability, T/C [19] of the same compound?
A: Its viability, T/C is 37.6%.

Q: What about the viability, T/C [20] of the same compound?
A: The viability, T/C was 48.4%.

Q: And the viability, T/C (second compound 10 µM, first compound 0.00316 µM)?
A: The viability, T/C was 66.2%.

Q: And the viability, T/C (second compound 10 µM, first compound 0.01 µM)?
A: Its viability, T/C is 53.2%.

Q: What about the viability, T/C [21] of the same compound?
A: The viability, T/C was 44.4%.

Q: And the viability, T/C [22]?
A: Its viability, T/C is 42%.

Q: And the viability, T/C [23]?
A: Its viability, T/C is 39.4%.

Q: What about the viability, T/C [24] of the same compound?
A: The viability, T/C was 47.5%.
